This note sets out measurements from US20200061084A1, “USE OF 2AMD AND 2MD TO TREAT FIBROSIS” (WISCONSIN ALUMNI RESEARCH FOUNDATION, priority 2016, published 2020).

Data set [1] concerns CsA-induced nephrotoxicity. The data set is described as follows: CsA-induced nephrotoxicity in rats, 28 days: weight, serum BUN and creatinine, urinary protein/creatinine ratio, H&E and picrosirius red histology. It counts as in vivo, Sprague-Dawley male rats. Conditions: for Dose sufficient to prevent nephrotoxicity and/or fibrosis without dramatically increasing serum calcium levels: Sprague-Dawley rats; for Picrosirius staining (collagens): kidney sections, birefringence quantified; for Picrosirius staining (collagens) / Serum creatinine / BUN / Urinary protein/creatinine ratio: rats; for Picrosirius staining (collagens) / weight / Serum creatinine / BUN / Urinary protein/creatinine ratio: CsA 20 mg/kg/day, analog 5 ng/kg, daily 28 days; for weight: rats at harvest; for BUN: serum; for Urinary protein/creatinine ratio: spot urine at harvest. How it is done: Rats were randomly assigned to groups of 6 each. Each animal received daily injections under 2% isofluorane. […] Vitamin D analogs were dissolved in polyethylene glycol, 0.5% ethanol (PEG). […] All rats were provided with food and water ad-libitum as per standard procedure. Animals were dosed daily for 28 days with the last dose given approximately 24 h prior to harvest (except for 5 animals receiving 1,25(OH)2D3 which were dosed 48 h prior to harvest). Animals were placed under anesthesia, urine and blood (aorta) were collected and kidneys removed; rats were euthanized by pneumothorax puncture. Kidneys were sectioned longitudinally with one half placed into 10% formalin and the other half snap frozen into liquid nitrogen. Blood was allowed to clot for about 1 h followed by spinning and removing of serum. Tissues in formalin were embedded in paraffin and sectioned for further study. Serum, urine and frozen kidney tissues were stored at -80° C. […] Serum was analyzed for BUN, creatinine and calcium levels. The BUN and creatinine measurements were performed using IDEXX cartridges measured on a […] Chemistry Analyzer. […] Urine testing to determine protein/creatinine ratio was performed using IDEXX cartridges; protein levels were also measured using BCA protein determination. Kidneys fixed in formalin were embedded in paraffin, sectioned and stained with Hematoxilin/eosin and with pricrosirius red, which stains mostly collagens I and III. Stained sections were imaged on an upright brightfield Nikon microscope with polarizer capabilities to assess the birefringence of the picrosirius-stained collagen fibers. Quantization of staining was carried out using Image J from 5 images obtained at random within the central cortical area and excluding blood vessels. For H&E, the eosin staining (pink) prevalent in native tissue was quantified Data was analyzed using Graphpad Prism software with the standard student t-test or One-way Anova operations.

A short description of data set [2]: Serum calcium levels of rats dosed with CsA and vitamin D analogs (atomic absorption spectroscopy). It counts as in vivo, Sprague-Dawley male rats. How it is done:
Rats were randomly assigned to groups of 6 each. Each animal received daily injections under 2% isofluorane. […] Vitamin D analogs were dissolved in polyethylene glycol, 0.5% ethanol (PEG). […] All rats were provided with food and water ad-libitum as per standard procedure. Animals were dosed daily for 28 days with the last dose given approximately 24 h prior to harvest (except for 5 animals receiving 1,25(OH)2D3 which were dosed 48 h prior to harvest). Animals were placed under anesthesia, urine and blood (aorta) were collected and kidneys removed; rats were euthanized by pneumothorax puncture. Kidneys were sectioned longitudinally with one half placed into 10% formalin and the other half snap frozen into liquid nitrogen. Blood was allowed to clot for about 1 h followed by spinning and removing of serum. Tissues in formalin were embedded in paraffin and sectioned for further study. Serum, urine and frozen kidney tissues were stored at −80° C.
Serum was analyzed for BUN, creatinine and calcium levels. The BUN and creatinine measurements were performed using IDEXX cartridges measured on a VETTEST Chemistry Analyzer.

The subject of data set [3] is unilateral ureteral obstruction (UUO) model. Briefly: Unilateral ureteral obstruction (UUO) model, picrosirius staining of collagen in kidney sections. It counts as in vivo, Male Sprague-Dawley rats. From the text: The unilateral ureteral obstruction (UUO) model is a surgical model representing a rodent equivalent of acute kidney injury. Obstruction results in marked dilatation of the ureter together with reduced renal blood flow and glomerular filtration.
Male Sprague-Dawley rats weighing approximately 200-350 g were acclimated and fed ad libitum a standard diet (Teklad 8604 or 2018, Harlan, Madison Wis.). Briefly, under 2% isoflurane anesthesia, the left kidney and ureter were exposed through a midline or a flank incision. The ureter was ligated using 5-0 or 6-0 braided silk suture material. The ligated ureter and kidney were returned to the abdominal cavity and the incision was closed in two layers with interrupted sutures and VETBOND tissue adhesive or staples. The right or contralateral kidney was used as a control. Sham operated animals were treated as the UUO animals except their ureter was not ligated (not shown).
Animals were given buprenorphine (0.05 mg/kg) prior to returning them to their cages where they were kept on standard water and chow until sacrifice at the designated times. Animals were euthanized under CO2, following a midline incision blood was collected via cardiac puncture and the kidneys were removed. The midsection of each kidney was placed in 10% formalin for paraffin embedding and histological staining. […]

Take “2α-methyl-19-nor-(20S)-1α,25-dihydroxyvitamin D3 [2AMD]”: in data set [1] (2.5 ng/kg), the Collagen content entry is on record as “reduction in collagen content”. In addition, the “Decrease of BUN compared to the CsA-treated group” value (“Decrease of BUN” for short) in data set [1] (2AMD at 10 ng/kg) is given as “about 30%”. For the same compound, the “Serum creatinine, normal (below 0.6 mg/dL) or not” value in data set [1] (2AMD at 20 ng/kg) is recorded as “normal in most of the treatment groups except for 2AMD at 20 ng/kg”. Also, the “Eosinophilic tissue (eosin in H&E-stained kidney) compared to the CsA treated group” value in data set [1] (CsA + 2AMD 2.5 ng/kg) is listed as “promoted an increase in eosinophilic tissue”. The “Eosinophilic tissue (eosin in H&E-stained kidney) compared to the CsA treated group” value in data set [1] (CsA + 2AMD 5 ng/kg) is recorded as “promoted an increase in eosinophilic tissue”. The “Decrease of the CsA-promoted increase in collagen birefringence (picrosirius red)” value in data set [1] (CsA + 2AMD 5 ng/kg, 28 days) is reported as “about 30%”. Further, the “Drop in weight from the rats' original weights” value in data set [1] (CsA + 2AMD 5 ng/kg, day of harvest) is 5 g. In data set [1], the “Dose sufficient to prevent nephrotoxicity and/or fibrosis without dramatically increasing serum calcium levels” value worked out at 5 ng/kg per day, the “Picrosirius staining (collagens)” value turned out to be 1.8, the weight was determined as 333.8 g and the Serum creatinine is listed as 0.36 mg/dL. In data set [1], the BUN was determined as 28 mg/dL and the Urinary protein/creatinine ratio turned out to be 0.2. Further, the Fibrosis entry in data set [1] (all doses of 2AMD (2.5, 5, 10, 20 ng/kg)) was “effective at reducing fibrosis”. In data set [1] (analog at 5 ng/kg), the “Decrease of BUN” value is listed as “about 30%” and the “Mean UPC lower than the mean UPC for the CsA group” value is “about 74%”. Also, the “Dose optimal in nephroprotection” value in data set [1] (various doses of 2AMD tested) was 5 ng/kg rat body weight. Further, the “Relationship of serum calcium levels with dose” value in data set [2] (rat, in vivo) is recorded as “linear relationship with dose”. In data set [3] (2AMD 5 ng/kg oral daily for 14 days starting on the day of UUO), the “Decrease in collagen content (picrosirius staining)” value is given as 3 fold. The “Decrease in collagen content (picrosirius staining)” value in data set [3] (2AMD 5 ng/kg oral daily, from 7 days prior to UUO to 7 days after UUO (-7+7)) is 3 fold.

As to `C=C1/C(=C\C=C2/CCC[C@]3(C)[C@@H]([C@H](C)CCCC(C)(C)O)CC[C@@H]23)C[C@@H](O)C[C@@H]1O` [1,25(OH)2 D3, 1,25(OH)2D3], the “Serum calcium level increase with respect to rats with vehicles or CsA+PEG” value in data set [2] (CsA + 1,25(OH)2D3 100 ng/kg, 28 days) was “about 25%”.

Take `C=C1[C@H](O)CC(=C/C=C2\CCCC3(C)C2CCC3[C@@H](C)CCCC(C)(C)O)C[C@H]1O` (stereo partly drawn) [2MD, 2-methylene-19-nor-(20S)-1α,25-dihydroxyvitamin D3]: in data set [1], the “Dose sufficient to prevent nephrotoxicity and/or fibrosis without dramatically increasing serum calcium levels” value is listed as 5 ng/kg per day, the “Picrosirius staining (collagens)” value is 1.7, the weight came out at 317.3 g and the Serum creatinine was determined as 0.33 mg/dL. Moreover, in data set [1], the BUN turned out to be 27 mg/dL and the Urinary protein/creatinine ratio is 0.4. Moreover, in data set [1] (analog at 5 ng/kg), the “Decrease of BUN” value is listed as “about 30%” and the “Mean UPC lower than the mean UPC for the CsA group” value is on record as “about 74%”.

Regarding cyclosporine [CsA + PEG], the “Serum Ca” value in data set [2] (rats, CsA 20 mg/kg/day, analog 5 ng/kg, daily injection 28 days, blood about 24 h after last dose) turned out to be 8.7 mg/dL.
